pEC50: −log10 of the molar value. Values joined by “and” are separate entries in the source; they are usually repeats but may differ in a detail not shown here. Equal values may be shown once.
Each compound was assayed against human mGluR5A (Homo sapiens, UniProt P41594) (assay: mGluR5 FLIPR Assay). Settings: positive modulator activity; HEK293 (ZF) cells with human mGluR5A and rat GLAST; Ca++ response to ~EC10 glutamate.
Format: cell-based

human mGluR5A, sequence (P41594 21-1180 isoform P41594-2): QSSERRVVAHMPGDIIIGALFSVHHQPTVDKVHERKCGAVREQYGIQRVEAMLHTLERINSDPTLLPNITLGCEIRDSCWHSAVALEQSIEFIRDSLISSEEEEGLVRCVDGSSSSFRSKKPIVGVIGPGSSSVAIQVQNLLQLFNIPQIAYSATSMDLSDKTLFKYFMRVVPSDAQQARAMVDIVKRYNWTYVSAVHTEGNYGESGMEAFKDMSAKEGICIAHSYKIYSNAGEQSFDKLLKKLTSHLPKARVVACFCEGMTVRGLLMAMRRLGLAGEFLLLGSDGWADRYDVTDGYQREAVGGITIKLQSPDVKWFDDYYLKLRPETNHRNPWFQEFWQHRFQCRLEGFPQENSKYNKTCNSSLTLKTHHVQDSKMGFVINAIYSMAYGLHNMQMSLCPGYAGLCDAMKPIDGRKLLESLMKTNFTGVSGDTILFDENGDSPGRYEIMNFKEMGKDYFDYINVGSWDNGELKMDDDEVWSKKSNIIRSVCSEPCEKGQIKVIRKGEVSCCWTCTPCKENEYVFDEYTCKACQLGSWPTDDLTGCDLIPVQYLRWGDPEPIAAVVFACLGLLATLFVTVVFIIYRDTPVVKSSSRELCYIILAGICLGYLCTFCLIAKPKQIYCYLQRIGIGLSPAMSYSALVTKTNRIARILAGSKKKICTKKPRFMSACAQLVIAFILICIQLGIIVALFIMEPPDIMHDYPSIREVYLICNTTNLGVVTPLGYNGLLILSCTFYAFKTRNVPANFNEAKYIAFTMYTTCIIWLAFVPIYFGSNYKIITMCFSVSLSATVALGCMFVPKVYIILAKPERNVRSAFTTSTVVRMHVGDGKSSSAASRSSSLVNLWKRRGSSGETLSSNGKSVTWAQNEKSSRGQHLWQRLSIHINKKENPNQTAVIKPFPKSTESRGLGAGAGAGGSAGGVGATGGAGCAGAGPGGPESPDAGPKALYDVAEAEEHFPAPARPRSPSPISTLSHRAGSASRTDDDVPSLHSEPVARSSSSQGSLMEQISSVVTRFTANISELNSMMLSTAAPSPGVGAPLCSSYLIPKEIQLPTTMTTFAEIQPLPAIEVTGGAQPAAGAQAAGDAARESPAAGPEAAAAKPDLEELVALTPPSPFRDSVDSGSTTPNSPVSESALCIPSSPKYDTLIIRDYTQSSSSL

Going from `COc1cccc([C@H]2OC(=O)N[C@@H]2c2cccc(C#Cc3cncc(C#N)c3)c2)c1` [Example 80, 5-((3-((4R,5R)-5-(3-Methoxyphenyl)-2-oxooxazolidin-4yl)-phenyl)ethynyl)nicotinonitrile] to `COc1cccc([C@@H]2OC(=O)N[C@H]2c2cncc(C#Cc3ccccc3)c2)c1` (single isomer, unassigned) [Example 32], the pEC50 falls from greater than 7.00 to less than 6.00. The first is the more potent here.

`O=C1N[C@H](c2cccc(C#Cc3ccccc3)c2)[C@@H](c2ccccc2)O1` (single isomer, unassigned) [Example 95] and `O=C1N[C@@H](c2cncc(C#Cc3ccccc3)c2)[C@H](c2ccccc2)O1` (single isomer, unassigned) [Example 39] cannot be ordered by pEC50: greater than 7.00 for the first, greater than 7.00 for the second.

`O=C1N[C@H](c2cccc(C#Cc3ccccc3)c2)[C@@H](c2nc(-c3cccnc3)no2)O1` [Example 164] and `O=C1N[C@H](c2cccc(C#Cc3ccccc3)n2)[C@@H](c2cccnc2)O1` (single isomer, unassigned) [Example 367] cannot be ordered by pEC50: less than 6.00 for the first, less than 6.00 for the second.

`O=C1N[C@H](c2cncc(C#Cc3cccc(Cl)c3)c2)[C@@H](c2cc(F)ccc2F)O1` [Example 385, (4R,5R)-4-(5-((3-chlorophenyl)ethynyl)pyridin-3-yl)-5-(2,5-difluorophenyl)oxazolidin-2-one] and `O=C1N[C@H](c2cncc(C#Cc3cc(Cl)cc(Cl)c3)c2)[C@@H](c2cc(F)ccc2F)O1` [Example 389, (4R,5R)-4-(5-((3,5-Dichlorophenyl)ethynyl)pyridin-3-yl)-5-(2,5-difluorophenyl)oxazolidin-2-one] cannot be ordered by pEC50: less than 6.00 for the first, less than 6.00 for the second.

`COc1cccc([C@H]2OC(=O)N[C@@H]2c2cccc(C#Cc3cc4ccccc4cn3)c2)c1` [Example 67, (4R,5R)-4-(3-(Isoquinolin-3-ylethynyl)phenyl)-5-(3-methoxyphenyl)oxazolidin-2-one] and `COc1cccc([C@H]2OC(=O)N[C@@H]2c2cccc(C#Cc3ccc(F)cn3)c2)c1` [Example 195] cannot be ordered by pEC50: less than 6.00 for the first, less than 6.00 for the second.

First: COc1cccc([C@H]2OC(=O)N[C@@H]2c2cccc(C#Cc3cccc(C#N)n3)c2)c1 [Example 75, 6-((3-((4R,5R)-5-(3-Methoxyphenyl)-2-oxooxazolidin-4-yl)phenyl)ethynyl)picolinonitrile]
Second: COc1cccc([C@H]2OC(=O)N[C@@H]2c2cccc(C#Cc3cccc(OC)n3)c2)c1 [Example 61]
The pEC50 of the first is lower: less than 4.52 for the first, greater than 7.00 for the second. The second is the more potent here.

First: COc1cccc([C@H]2OC(=O)N[C@@H]2c2cccc(C#Cc3ccc(F)nc3)c2)c1 [Example 69]
Second: COc1cccc([C@H]2OC(=O)N[C@@H]2c2cccc(C#Cc3cccc(Cl)c3)c2)c1 [Example 262]
The pEC50 of the first is higher: greater than 7.00 for the first, 6.00 to 7.00 for the second.

`COc1cccc([C@H]2OC(=O)N[C@@H]2c2cccc(C#Cc3cccc(F)c3)n2)c1` [Example 8, (4R,5R)-4-(6-((3-Fluorophenyl)ethynyl)pyridin-2-yl)-5-(3-methoxyphenyl)oxazolidin-2-one] and `COc1cccc([C@H]2OC(=O)N[C@@H]2c2cccc(C#Cc3ccc(F)cc3)n2)c1` [Example 7, (4R,5R)-4-(6-((4-Fluorophenyl)ethynyl)pyridin-2-yl)-5-(3-methoxyphenyl)oxazolidin-2-one] cannot be ordered by pEC50: less than 6.00 for the first, less than 6.00 for the second.

First: O=C1N[C@H](c2cccc(C#Cc3ccccc3)n2)[C@@H](c2cccc(F)c2)O1 [Example 217]
Second: COc1cccc([C@@H]2OC(=O)N[C@H]2c2cccc(C#Cc3ccccc3)n2)c1 (single isomer, unassigned) [Example 6]
The pEC50 of the first is higher: greater than 7.00 for the first, less than 6.00 for the second.

First: O=C1N[C@H](c2cncc(C#Cc3ccccc3)c2)[C@@H](c2cc(F)cc(F)c2F)O1 [Example 293]
Second: O=C1N[C@H](c2cncc(C#Cc3cncc(F)c3)c2)[C@@H](c2ccc(F)c(F)c2)O1 [Example 175]
The pEC50 of the first is lower: less than 6.00 for the first, greater than 7.00 for the second.

`O=C1N[C@H](c2cccc(C#Cc3ccccc3)n2)[C@@H](c2ccccc2F)O1` (single isomer, unassigned) [Example 307] and `O=C1N[C@H](c2cccc(C#Cc3ccccc3F)n2)[C@@H](c2ccccc2)O1` [Example 12] cannot be ordered by pEC50: less than 6.00 for the first, less than 6.00 for the second.

`O=C1N[C@H](c2cccc(C#Cc3cncc(F)c3)c2)[C@@H](c2ccncn2)O1` [Example 244] and `O=C1N[C@@H](c2cncc(C#Cc3ccccc3)c2)[C@H](c2ccncn2)O1` (single isomer, unassigned) [Example 317] cannot be ordered by pEC50: less than 6.00 for the first, less than 6.00 for the second.

`COc1cccc([C@H]2OC(=O)N[C@@H]2c2cccc(C#Cc3ccncn3)c2)c1` [Example 74, (4R,5R)-5-(3-Methoxyphenyl)-4-(3-(pyrimidin-4-ylethynyl)phenyl)oxazolidin-2-one] and `COc1cccc([C@H]2OC(=O)N[C@@H]2c2cncc(C#Cc3ccccn3)c2)c1` (single isomer, unassigned) [Example 29] cannot be ordered by pEC50: less than 4.52 for the first, less than 6.00 for the second.

`O=C1N[C@H](c2cncc(C#Cc3ccncc3)c2)[C@@H](c2ccc(F)cc2)O1` [Example 213] and `O=C1N[C@H](c2cncc(C#Cc3cnccn3)c2)[C@@H](c2ccc(F)cc2)O1` [Example 212] cannot be ordered by pEC50: greater than 7.00 for the first, greater than 7.00 for the second.

Compared with `O=C1N[C@H](c2cccc(C#Cc3cnccn3)n2)[C@@H](c2ccc(F)cc2)O1` (single isomer, unassigned) [Example 368], `O=C1N[C@H](c2cc(C#Cc3ccc4nccnc4c3)cnc2F)[C@@H](c2ccc(F)cc2)O1` [Example 154, (4R,5R)-4-(2-fluoro-5-(quinoxalin-6-ylethynyl)pyridin-3-yl)-5-(4-fluorophenyl)oxazolidin-2-one] is lower in pEC50: 6.00 to 7.00 for the first, less than 6.00 for the second. The first is the more potent here.

Going from `COc1cccc([C@H]2OC(=O)N[C@@H]2c2cccc(C#Cc3ccccc3F)c2)c1` [Example 121, (4R,5R)-4-(3-((2-fluorophenyl)ethynyl)phenyl)-5-(3-methoxyphenyl)oxazolidin-2-one] to `COc1cccc([C@@H]2OC(=O)N[C@H]2c2cccc(C#Cc3cc(F)cc(F)c3)c2)c1` [Example 124, (4S,5S)-4-(3-((3,5-difluorophenyl)ethynyl)phenyl)-5-(3-methoxyphenyl)oxazolidin-2-one], the pEC50 falls from greater than 7.00 to less than 6.00. The first is the more potent here.

`O=C1N[C@H](c2cc(C#Cc3ccccn3)cnc2F)[C@@H](c2cccc(F)c2)O1` [Example 148, (4R,5R)-4-(2-Fluoro-5-(pyridin-2-ylethynyl)pyridin-3-yl)-5-(3-fluorophenyl)oxazolidin-2-one] and `O=C1N[C@H](c2cc(C#Cc3ccnc(C4CC4)c3)cnc2F)[C@@H](c2ccc(Cl)cc2)O1` [Example 150, (4R,5R)-5-(4-Chlorophenyl)-4-(5-((2-cyclopropylpyridin-4-yl)ethynyl)-2-fluoropyridin-3-yl)oxazolidin-2-one] cannot be ordered by pEC50: less than 6.00 for the first, less than 6.00 for the second.

Going from `C[C@@]1(c2cncc(C#Cc3ncccc3F)c2)NC(=O)O[C@H]1c1ccccc1` [Example 230] to `C[C@]1(c2cncc(C#Cc3ccccc3)c2)NC(=O)O[C@@H]1c1ccc(F)cc1` [Example 219], the pEC50 rises from less than 6.00 to greater than 7.00. The second is the more potent here.

`COc1cccc([C@H]2OC(=O)N[C@@H]2c2cccc(C#Cc3ccnc(OC)c3)c2)c1` [Example 89, (4R,5R)-5-(3-Methoxyphenyl)-4-(3-((2-methoxypyridin-4-yl)ethnyl)phenyl)oxazolidin-2-one] and `COc1cccc([C@H]2OC(=O)N[C@@H]2c2cccc(C#Cc3csc(C)n3)c2)c1` [Example 52, (4R,5R)-5-(3-Methoxyphenyl)-4-(3-((2-methylthiazol-4-yl)ethnyl)phenyl)oxazolidin-2-one] cannot be ordered by pEC50: less than 6.00 for the first, less than 4.52 for the second.

First: O=C1N[C@H](c2cncc(C#Cc3cccc(Cl)c3)c2)[C@@H](c2c(F)cccc2F)O1 [Example 281]
Second: C[C@@]1(c2cc(F)ccc2F)OC(=O)N[C@H]1c1cncc(C#Cc2ccccc2)c1 [Example 288]
The pEC50 of the first is lower: less than 6.00 for the first, 6.00 to 7.00 for the second. The second is the more potent here.

First: Cc1ccc([C@H]2OC(=O)N[C@@H]2c2cccc(C#Cc3ccccc3)c2)cc1C [Example 101, (4R,5R)-5-(3,4-dimethylphenyl)-4-(3-(phenylethynyl)phenyl)oxazolidin-2-one]
Second: O=C1N[C@H](c2cc(C#Cc3ccccc3)ccn2)[C@@H](c2ccccc2)O1 (single isomer, unassigned) [Example 18]
The pEC50 of the first is higher: greater than 7.00 for the first, less than 4.52 for the second. The first is the more potent here.

In the case of `O=C1N[C@H](c2cncc(C#Cc3cccnc3)c2)[C@@H](c2cccc(F)c2)O1` [Example 35, (4R,5R)-5-(3-Fluorophenyl)-4-(5-(pyridin-3-ylethynyl)pyridin-3-yl)oxazolidin-2-one], the pEC50 was > 7.00 and 8.20.
With `COc1cccc([C@H]2OC(=O)N[C@@H]2c2cccc(C#Cc3ccc(OC)nc3)c2)c1` [Example 71, (4R,5R)-5-(3-Methoxyphenyl)-4-(3-((6-methoxypyridin-3-yl)ethynyl)phenyl)oxazolidin-2-one] the pEC50 was 6.00 to 7.00 and 6.49.

— USRE49735E1 (BRISTOL-MYERS SQUIBB COMPANY, priority 2010, dated 2023)
